From US11673898B2, “Substituted inhibitors of menin-MLL and methods of use” (Kura Oncology, Inc., priority 2016, dated 2023)

biological target: T1, Menin MLL 4-43 (Homo sapiens, UniProt O00255); test: Fluorescence polarization (FP) competition assay of the menin-MLL interaction; format: binding; conditions: fluorescence polarization assay; read-out: Menin MLL 4-43 IC50
T1 sequence (O00255 1-610): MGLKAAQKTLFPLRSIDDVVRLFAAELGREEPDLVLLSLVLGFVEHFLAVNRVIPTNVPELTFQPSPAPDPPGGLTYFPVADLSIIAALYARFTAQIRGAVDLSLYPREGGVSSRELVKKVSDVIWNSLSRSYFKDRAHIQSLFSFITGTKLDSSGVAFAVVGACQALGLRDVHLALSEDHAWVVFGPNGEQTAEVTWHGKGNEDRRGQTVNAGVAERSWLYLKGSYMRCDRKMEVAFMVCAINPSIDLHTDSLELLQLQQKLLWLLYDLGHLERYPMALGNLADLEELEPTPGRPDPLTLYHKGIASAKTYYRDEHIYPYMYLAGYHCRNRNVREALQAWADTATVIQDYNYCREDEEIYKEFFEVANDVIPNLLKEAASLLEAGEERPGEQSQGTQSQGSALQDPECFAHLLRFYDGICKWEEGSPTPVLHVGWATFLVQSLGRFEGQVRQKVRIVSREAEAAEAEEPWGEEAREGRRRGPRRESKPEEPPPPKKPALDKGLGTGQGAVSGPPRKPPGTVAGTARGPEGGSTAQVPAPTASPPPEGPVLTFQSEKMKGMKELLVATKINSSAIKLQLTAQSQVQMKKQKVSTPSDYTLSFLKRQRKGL

| Compound | IC50 [nM] |
| --- | --- |
| Cc1c(CN2CCC(Nc3ncnc4sc(CC(F)(F)F)cc34)CC2)ccc2c1cc(C#N)n2C[C@@H](C)N1CCN(S(C)(=O)=O)CC1 [Compound 9] | > 1000 |
| Cc1c(CN2CCC(Nc3ncnc4sc(CC(F)(F)F)cc34)CC2)ccc2c1cc(C#N)n2C[C@H](C)N1CCN(S(C)(=O)=O)CC1 [Compound 10] | < 50 |
| CNS(=O)(=O)N1CCN([C@@H](C)Cn2c(C#N)cc3c(C)c(CN4CCC(Nc5nc(N)nc6sc(CC(F)(F)F)cc56)CC4)ccc32)CC1 [Compound 132] | < 50 |
| CNc1nc(NC2CCN(Cc3ccc4c(cc(C#N)n4CC(C)c4ccc(=O)[nH]c4)c3C)CC2)c2cc(CC(F)(F)F)sc2n1 (centres unmarked) [Compound 229] | < 50 |
| CNc1nc(NC2CCN(Cc3ccc4c(cc(C#N)n4CC(C)c4cn[nH]c4)c3C)CC2)c2cc(CC(F)(F)F)sc2n1 (centres unmarked) [Compound 230] | 50 to 250 |
| Cc1nc(NC2CCN(Cc3ccc4c(cc(C#N)n4C[C@H](C)N4CCN(S(C)(=O)=O)CC4)c3C)CC2)c2c(C)c(CC(F)(F)F)sc2n1 [Compound 242] | > 1000 |
| CNc1nc(NC2CCN(Cc3ccc4c(cc(C#N)n4C[C@H](C)N4CCN(S(C)(=O)=O)CC4)c3C)CC2)c2c(C)c(CC(F)(F)F)sc2n1 [Compound 252] | > 1000 |
| Cc1nc(NC2CCN(Cc3ccc4c(cc(C#N)n4C[C@H](C)N4CCC(S(C)(=O)=O)CC4)c3C)CC2)c2cc(C(O)C(F)(F)F)sc2n1 (some centres unmarked) [Compound 280] | 50 to 250 |
| Cc1nc(NC2CCN(Cc3ccc4c(cc(C#N)n4C[C@H](C)N4C5CCC4CN(S(C)(=O)=O)C5)c3C)CC2)c2cc(CC(F)(F)F)sc2n1 [Compound 283] | < 50 |
| Cc1c(CN2CCC(Nc3ncnc4sc(CC(F)(F)F)cc34)CC2)ccc2c1cc(C#N)n2CCN1CCC(NS(C)(=O)=O)CC1 [Compound 1000] | 20 to 1000 |
| CC(=O)NC1CCN(CCn2c(C#N)cc3c(C)c(CN4CCC(Nc5ncnc6sc(CC(F)(F)F)cc56)CC4)ccc32)CC1 [Compound 1001] | 20 to 1000 |
| Cc1c(CN2CCC(Nc3ncnc4sc(CC(F)(F)F)cc34)CC2)ccc2c1cc(C#N)n2CCc1ccc(NC(=O)C2(C#N)CC2)cc1 [Compound 1002] | 50 to 250 |
| Cc1c(CN2CCC(Nc3ncnc4sc(CC(F)(F)F)cc34)CC2)ccc2c1cc(C#N)n2CCc1ccc(NC(=O)CC#N)cc1 [Compound 1003] | 50 to 250 |
| C=CC(=O)N(C)c1ccc(CCn2c(C#N)cc3c(C)c(CN4CCC(Nc5ncnc6sc(CC(F)(F)F)cc56)CC4)ccc32)cc1 [Compound 1010] | > 1000 |
| C#CCOc1cc(CCn2c(C#N)cc3c(C)c(CN4CCC(Nc5ncnc6sc(CC(F)(F)F)cc56)CC4)ccc32)ccc1NC(=O)C=C [Compound 1011] | 20 to 1000 |
| C=CC(=O)Nc1ccc(CCn2c(C#N)cc3c(C)c(CN4CCC(Nc5ncnc6sc(CC(F)(F)F)cc56)CC4)ccc32)cc1OCc1cn(CCOCCOCCOCCNC(=O)CCCC[C@H]2SC[C@H]3NC(=O)N[C@H]32)nn1 [Compound 1012] | > 1000 |
| C/C=C(\C#N)C(=O)Nc1ccc(CCn2c(C#N)cc3c(C)c(CN4CCC(Nc5ncnc6sc(CC(F)(F)F)cc56)CC4)ccc32)cc1 [Compound 1013] | 50 to 250 |
| CNc1nc(NC2CCN(Cc3ccc4c(cc(C#N)n4CCN4CCC(S(C)(=O)=O)CC4)c3C)CC2)c2cc(CC(F)(F)F)sc2n1 [Compound 1020] | < 50 |
| Cc1nc(NC2CCN(Cc3ccc4c(cc(C#N)n4CCN4CCC(S(C)(=O)=O)CC4)c3C)CC2)c2cc(CC(F)(F)F)sc2n1 [Compound 1021] | < 50 |
| CNc1nc(NC2CCN(Cc3ccc4c(cc(C#N)n4CCN4CCN(S(C)(=O)=O)CC4)c3C)CC2)c2cc(CC(F)(F)F)sc2n1 [Compound 1022] | < 50 |
| Cc1nc(NC2CCN(Cc3ccc4c(cc(C#N)n4CCN4CCN(S(C)(=O)=O)CC4)c3C)CC2)c2cc(CC(F)(F)F)sc2n1 [Compound 1023] | 50 to 250 |
| CNc1nc(NC2CCN(Cc3ccc4c(cc(C#N)n4CCN4CCN(C)C(=O)C4)c3C)CC2)c2cc(CC(F)(F)F)sc2n1 [Compound 1024] | < 50 |
| CNc1nc(NC2CCN(Cc3ccc4c(cc(C#N)n4CCN4CCNC(=O)C4)c3C)CC2)c2cc(CC(F)(F)F)sc2n1 [Compound 1025] | < 50 |
| Cc1c(CN2CCC(Nc3ncnc4sc(CC(F)(F)F)cc34)CC2)ccc2c1cc(C#N)n2CCNC(=O)COCCOCCNC(=O)OC(C)(C)C [Compound 1027] | < 50 |

Second part, the molecule after the results:

| IC50 [nM] | Compound |
| --- | --- |
| < 50 | Cc1c(CN2CCC(Nc3ncnc4sc(CC(F)(F)F)cc34)CC2)ccc2c1cc(C#N)n2CC(C)N1CCN(S(C)(=O)=O)C(C(N)=O)C1 (centres unmarked) [Compound 80] |
| < 50 | Cc1c(CN2CCC(Nc3nc(N)nc4sc(CC(F)(F)F)cc34)CC2)ccc2c1cc(C#N)n2C[C@H](C)N1CCN(S(C)(=O)=O)CC1 [Compound 135] |
| < 50 | Cc1nc(NC2CCN(Cc3ccc4c(cc(C#N)n4C[C@H](C)N4CCN(S(C)(=O)=O)CC4)c3C)CC2)c2cc(CC(F)(F)F)sc2n1 [Compound 138] |
| < 50 | CNc1nc(NC2CCN(Cc3ccc4c(cc(C#N)n4C[C@H](C)N4CCN(C)CC4=O)c3C)CC2)c2cc(CC(F)(F)F)sc2n1 [Compound 226] |
| < 50 | CNc1nc(NC2CCN(Cc3ccc4c(cc(C#N)n4C[C@H](C)N4CCN(S(C)(=O)=O)C(CO)C4)c3C)CC2)c2cc(CC(F)(F)F)sc2n1 (some centres unmarked) [Compound 233] |
| 50 to 250 | Cc1c(CN2CCC(Nc3nc(CF)nc4sc(CC(F)(F)F)cc34)CC2)ccc2c1cc(C#N)n2C[C@H](C)N1CCN(S(C)(=O)=O)CC1 [Compound 241] |
| < 50 | CNc1nc(NC2CCN(Cc3ccc4c(cc(C#N)n4C[C@H](C)N4CCN(C)C(=O)C4)c3C)CC2)c2cc(CC(F)(F)F)sc2n1 [Compound 243] |
| < 50 | CNc1nc(NC2CCN(Cc3ccc4c(cc(C#N)n4C[C@H](C)N4CCNC(=O)C4)c3C)CC2)c2cc(CC(F)(F)F)sc2n1 [Compound 244] |
| 50 to 250 | CC(=O)OCc1nc(NC2CCN(Cc3ccc4c(cc(C#N)n4C[C@H](C)N4CCN(S(C)(=O)=O)CC4)c3C)CC2)c2cc(CC(F)(F)F)sc2n1 [Compound 245] |
| < 50 | Cc1c(CN2CCC(Nc3nc(CO)nc4sc(CC(F)(F)F)cc34)CC2)ccc2c1cc(C#N)n2C[C@H](C)N1CCN(S(C)(=O)=O)CC1 [Compound 246] |
| < 50 | CNc1nc(NC2CCN(Cc3ccc4c(cc(C#N)n4CC(C)C4CCN(S(C)(=O)=O)CC4)c3C)CC2)c2cc(CC(F)(F)F)sc2n1 (centres unmarked) [Compound 247] |
| < 50 | CNc1nc(NC2CCN(Cc3ccc4c(cc(C#N)n4C[C@H](C)N4CCN(S(=O)(=O)CC(C)C)CC4)c3C)CC2)c2cc(CC(F)(F)F)sc2n1 [Compound 248] |
| < 50 | CNc1nc(NC2CCN(Cc3ccc4c(cc(C#N)n4C[C@H](C)N4CCC(NS(C)(=O)=O)CC4)c3C)CC2)c2cc(CC(F)(F)F)sc2n1 [Compound 249] |
| < 50 | CNc1nc(NC2CCN(Cc3ccc4c(cc(C#N)n4C[C@H](C)N4CCN(S(=O)(=O)CC5CC5)CC4)c3C)CC2)c2cc(CC(F)(F)F)sc2n1 [Compound 250] |
| < 50 | CNc1nc(NC2CCN(Cc3ccc4c(cc(C#N)n4C[C@H](C)N4CCN(S(=O)(=O)C(C)C)CC4)c3C)CC2)c2cc(CC(F)(F)F)sc2n1 [Compound 251] |
| < 50 | CNc1nc(NC2CCN(Cc3ccc4c(cc(C#N)n4C[C@H](C)N4C5CCC4CN(S(C)(=O)=O)C5)c3C)CC2)c2cc(CC(F)(F)F)sc2n1 [Compound 282] |

test system: MLL-AF9 BMC; test: Cell proliferation assay (CellTiter-Glo); format: cell-based; conditions: not given
Procedure: Example 9: Cell proliferation assay. The ability of a compound of the present disclosure to inhibit the growth of cells, such as human leukemia cell, acute myeloid leukemia cell, cells with an MLL fusion, control cells without an MLL fusion, VCaP, LNCaP, 22RV1, DU145, LNCaP-AR, MV4; 11, KOPN-8, ML-2, MOLM-13, RS4; 11, SEM, bone marrow cells (BMCs), MLL-AF9, MLL-AF4, MLL-ENL, MLL-CBP, MLL-GAS7, MLL-AF1p, MLL-AF6, HM-2, E2A-HLF, REH, U937, K562, KG-1, HL-60 and NB4 cells, is tested using a cell viability assay, such as the Promega CellTiter-Glo® Luminescent Cell Viability Assay (Promega Technical Bulletin, 2015, “CellTiter-Glo® Luminescent Cell Viability Assay”: 1-15, herein incorporated by reference in its entirety). Cells are plated at relevant concentrations, for example about 1×10^5-2×10^5 cells per well in a 96-well plate. A compound of the present disclosure is added at a concentration up to about 2 μM with eight, 2-fold serial dilutions for each compound. Cells are incubated at 37° C. for a period of time, for example, 72 hours, then cells in the control wells are counted. Media is changed to restore viable cell numbers to the original concentration, and compounds are re-supplied. Proliferation is measured about 72 hours later using Promega CellTiter-Glo® reagents, as per kit instructions.

| Compound | GI50 [nM] |
| --- | --- |
| Cc1c(CN2CCC(Nc3ncnc4sc(CC(F)(F)F)cc34)CC2)ccc2c1cc(C#N)n2C[C@@H](C)N1CCN(S(C)(=O)=O)CC1 [Compound 9] | 250 to 1000 |
| Cc1c(CN2CCC(Nc3ncnc4sc(CC(F)(F)F)cc34)CC2)ccc2c1cc(C#N)n2C[C@H](C)N1CCN(S(C)(=O)=O)CC1 [Compound 10] | 10 to 50 |
| Cc1c(CN2CCC(Nc3ncnc4sc(CC(F)(F)F)cc34)CC2)ccc2c1cc(C#N)n2CC(C)N1CCN(S(C)(=O)=O)C(C(N)=O)C1 (centres unmarked) [Compound 80] | 10 to 50 |
| CNS(=O)(=O)N1CCN([C@@H](C)Cn2c(C#N)cc3c(C)c(CN4CCC(Nc5nc(N)nc6sc(CC(F)(F)F)cc56)CC4)ccc32)CC1 [Compound 132] | < 10 |
| Cc1c(CN2CCC(Nc3nc(N)nc4sc(CC(F)(F)F)cc34)CC2)ccc2c1cc(C#N)n2C[C@H](C)N1CCN(S(C)(=O)=O)CC1 [Compound 135] | < 10 |
| Cc1nc(NC2CCN(Cc3ccc4c(cc(C#N)n4C[C@H](C)N4CCN(S(C)(=O)=O)CC4)c3C)CC2)c2cc(CC(F)(F)F)sc2n1 [Compound 138] | 10 to 50 |
| CNc1nc(NC2CCN(Cc3ccc4c(cc(C#N)n4C[C@H](C)N4CCN(S(C)(=O)=O)CC4)c3C)CC2)c2cc(CC(F)(F)F)sc2n1 [Compound 151] | < 10 |
